Measured values published in patent US20190254984A1, “COMPOSITION AND FOOD OR DRINK” (Advanced Medical Frontier Co., Ltd., priority 2012, published 2019).

Key:
ob/ob mice [1] = assay: Example 2: body weight of ob/ob mice after oral administration; assay type: in vivo; conditions: γ-oryzanol alone, oral daily 5 and 320 μg/g of body weight/day; FIG. 1B
Description: The γ-oryzanol-incorporating particle prepared in Example 1 was orally administered to mice for evaluation.
(§1) First, the γ-oryzanol-incorporating particle was suspended in distilled water at 5%, 1.25%, and 0.31% (w/v). As a control, γ-oryzanol was suspended in 0.5% (w/v) methylcellulose solution (manufactured by Wako Pure Chemical Industries, Ltd.) at 0.05% and 3.2% (0.5 and 32 mg/ml).
(§2) Subsequently, each of the γ-oryzanol-incorporating particle suspensions and the γ-oryzanol suspensions was orally administered to ob/ob mice (five weeks old, male, B6. Lepob/J mice (homozygote (Lepob/Lepob)), made by Charles River Laboratories Japan, Inc.) (n=6) using a probe. For the details, the γ-oryzanol-incorporating particle suspension at 0.3, 1.3, and 5 μg/g of body weight/14 days in terms of γ-oryzanol was administered to the mice for two days followed by a five-day rest period every two weeks; and observation was made for 14 days. The daily dose was 1.1, 4.4, and 17.5 μg/g of body weight/day, respectively. […]
(§3) One week and two weeks after the beginning of the administration, the body weight and blood glucose level of the mice were measured. […] In such a test, following to 18-hour fasting, glucose was orally administered at 0.75 g/kg using a probe; and the blood glucose level was measured from the time of administration to two hours thereafter.

ob/ob mice [2] = assay: Example 2: blood glucose level of ob/ob mice; assay type: in vivo; conditions: γ-oryzanol alone, oral daily 5 and 320 μg/g of body weight/day; FIG. 2B
Description: as §1, §2, §3

ob/ob mice [3] = assay: Example 2: oral glucose tolerance test in ob/ob mice; assay type: in vivo; conditions: γ-oryzanol alone 5 and 320 μg/g of body weight/day; vs vehicle; FIG. 3C, 3D
Description: as §1, §2, §3

[4] = test system: IL-8 secretion from TNF-α-stimulated intestinal epithelial cells (Caco-2); assay: Example 3: IL-8 secretion upon TNF-α stimulation of Caco-2 cells (ELISA); assay type: cell-based, human; conditions: 24 h pretreatment with 1 μg/ml of γ-oryzanol; a decrease observed; compared with no and 0.1 μg/ml γ-oryzanol; FIG. 7A
Description: As for cells, Caco-2 (RCB0988, RIKEN, the Institute of Physical and Chemical Research) was used. Caco-2 was cultured in a […] culture dish until reaching semiconfluent. As for a medium, Dulbecco modified Eagle's Medium (DMEM, D5796, manufactured by Sigma-Aldrich) was used. To the medium, non-essential amino acids (M7145, manufactured by Sigma-Aldrich) and Penicillin/Streptomycin (hereinafter referred to as “PS”; manufactured by Gibco, Life Technologies Corporation Japan) were added.
Cells with 50 passages were detached with 0.25% trypsin/0.02% EDTA and seeded in a 24-well plate at a concentration of 2×10^5 cells/well. The cells were cultured in DMEM with 10% FBS (fetal bovine serum), 1% non-essential amino acids, and 1% PS for 14 days. The medium was changed every other day; and the cells were sufficiently differentiated to be used the experiment below.
The medium was removed 24 hours before stimulation with TNF-α; and the cells were washed with 1 ml of PBS per well twice. […]
The collected supernatant was subjected to ELISA (enzyme immunity measurement assay) to measure the amount of IL-8 in the supernatant. […] At the same time, the total amount of proteins in the supernatant was measured by using a bicinchoninic acid assay (Pierce BCA Protein Assay Kit, manufactured by Thermo Scientific). […]

ob/ob mice [5] = assay: Example 5: body weight of genetically obese mice over four weeks; assay type: in vivo; conditions: Orz everyday for four weeks, even at 320 μg/g of body weight/day; n=14; FIG. 9B
Description: (§4) Ob/ob mice were raised at 24° C. under a light/dark cycle of 12 hours/12 hours. The mice were raised in conditions where they were able to freely take feed and water. The body weight of mice was measured every week.
(§5) γ-oryzanol incorporated with PLGA particles was dissolved in distilled water (hereinafter referred to as “Nano Orz”) and administered to the mice using a probe at a dose of 0.3, 1.3, or 5 μg/g of body weight per day for two days every two weeks. As a solution of γ-oryzanol which was not enclosed in the PLGA particle, γ-oryzanol (manufactured by Wako Pure Chemical Industries, Ltd.) was dissolved in a 0.5% methylcellulose solution (hereinafter referred to as “Orz”). Orz was administered to the stomach using a probe everyday for four weeks (5 or 320 μg/g of body weight/day).
(§6) Data were expressed as mean±standard error (s.e.m). One-way analysis of variance, repeated measures analysis of variance, and multiple comparisons following repeated measures analysis of variance (Bonferroni/Dunn method) were employed as appropriate. For analysis of difference between two groups, Student's t-test was employed. Difference was considered to be significant with P<0.05.

ob/ob mice [6] = assay: Example 5: blood glucose level of genetically obese mice over four weeks; assay type: in vivo; conditions: Orz even at 320 μg/g of body weight/day, n=14, FIG. 10B
Description: as §4, §5
Whole blood was collected from the tail vein of mice; and blood glucose was measured using a simple blood glucose meter. A blood sample was further collected from the network of the retro orbital vein. For a glucose tolerance test, the mice were fasted for 18 hours and thereafter administered with glucose at 0.75 g/kg of body weight. The blood glucose level was measured at the predetermined time. […] The concentration of triglycerides in the plasma was determined by Triglyceride E-Test Wako.
(§7) Data were expressed as mean±standard error (s.e.m). […]

ob/ob mice [7] = assay: Example 5: glucose tolerance test; assay type: in vivo; conditions: Orz even at 320 μg/g of body weight/day; n=14; FIG. 11C, 11D
Description: as §5
(§8) Whole blood was collected from the tail vein of mice; and blood glucose was measured using a simple blood glucose meter. A blood sample was further collected from the network of the retro orbital vein. For a glucose tolerance test, the mice were fasted for 18 hours and thereafter administered with glucose at 0.75 g/kg of body weight. The blood glucose level was measured at the predetermined time. In addition, for an insulin tolerance test, insulin (0.5 unit/kg of body weight; manufactured by Eli Lilly) was intraperitoneally injected to the mice that had fasted for four hours. The concentration of triglycerides in the plasma was determined by Triglyceride E-Test Wako.
as §7

ob/ob mice [8] = assay: Example 5: insulin tolerance test; assay type: in vivo; conditions: Orz even at 320 μg/g of body weight/day; n=14; FIG. 12C, 12D
Description: as §5, §8, §7

ob/ob mice [9] = assay: Example 5: plasma triglyceride; assay type: in vivo; conditions: Orz at the same amount as Nano Orz; n=6; FIG. 13
Description: as §5, §8, §7

Chop = assay: Example 5: ER stress marker gene expression in tissues (real time PCR), Chop; assay type: in vivo, mice; conditions: for expression level of Chop: hypothalamus, Orz even at 320 μg/g of body weight/day
Description: as §5
(§9) The hypothalamus, the islets of Langerhans, the adipose tissue of the mesentery, the liver, the epididymal adipose tissue, and the subcutaneous adipose tissue were collected from the mice; and the expression level of ER stress marker genes (Chop, ERdj4, and Xbp1s), and inflammation marker genes (TNF-α and MCP-1) was quantified using a quantitative real time polymerase chain reaction. The islets of Langerhans was isolated from mice by digestion with collagenase (Liberase TL; manufactured by Roche Diagnostics K.K.) and purified using Histopaque (trademark) gradient (Histopaque 1077; manufactured by Sigma-Aldrich).
(§10) Using TRIzol (registered trademark) RNA Isolation Reagents (manufactured by Life Technologies Corporation), total RNA was extracted from each of the tissues; and cDNA was synthesized using iScript (trademark) cDNA Synthesis Kit (manufactured by Bio-Rad Laboratories, Inc.). Next, quantitative real time PCR was carried out using StepOnePlus (trademark) Real-Time PCR System, Fast TaqMan Universal Master Mix, and Fast SYBR Green Master Mix (manufactured by Applied Biosystems). The level of mRNA was normalized with that of 18S rRNA.
as §6, with “Difference was considered to be significant with P<0.05.” left out

ERdj4 = assay: Example 5: ER stress marker gene expression in tissues (real time PCR), ERdj4; assay type: in vivo, mice; conditions: Orz even at 320 μg/g of body weight/day
Description: as §5
as §9, with “Sigma-Aldrich). […]” for “Sigma-Aldrich).”
as §7

Xbp1s = assay: Example 5: ER stress marker gene expression in tissues (real time PCR), Xbp1s; assay type: in vivo, mice; conditions: Orz even at 320 μg/g of body weight/day, N=8
Description: as §5, §9, §10
as §6, with “Difference was considered to be significant with P<0.05.” left out

TNF-α = assay: Example 5: inflammation marker gene expression in adipose tissues (real time PCR), TNF-α; assay type: in vivo, mice; conditions: Orz even at 320 μg/g of body weight/day, N=8
Description: as §5
as §9, with “Sigma-Aldrich). […]” for “Sigma-Aldrich).”
as §7

MCP-1 = assay: Example 5: inflammation marker gene expression in adipose tissues (real time PCR), MCP-1; assay type: in vivo, mice; conditions: Orz even at 320 μg/g of body weight/day, N=8
Description: as §5
as §9, with “Sigma-Aldrich). […]” for “Sigma-Aldrich).”
as §7

obese mice = conditions: oral γ-oryzanol 320 mg/kg; cited from earlier work

γ-oryzanol
weight gain (ob/ob mice [1]): not observed | blood glucose level (ob/ob mice [2]): not observed | blood glucose level in oral glucose tolerance test (ob/ob mice [3]): comparable | amount of IL-8 in the supernatant [4]: no significant difference | weight gain (ob/ob mice [5]): no significant suppression | blood glucose level (ob/ob mice [6]): no significant change | glucose tolerance (glucose tolerance test, blood glucose and AUC) (ob/ob mice [7]): no improvement | insulin tolerance (insulin tolerance test, blood glucose and AUC) (ob/ob mice [8]): no improvement | concentration of plasma triglyceride (ob/ob mice [9]): not decreased | expression of Chop (Chop; adipose tissue in the mesentery, Orz 320 μg/g of body weight/day, N=8, FIG. 15A): significantly inhibited | expression level of Chop (Chop; N=8, FIG. 14A): did not inhibit | expression level of Chop (Chop; printed in the sentence on ERdj4 (FIG. 14B)): did not inhibit | expression level of ERdj4 (ERdj4; islets of Langerhans, N=8, FIG. 14C): did not inhibit | expression level of ERdj4 (ERdj4; liver, printed in the sentence on Chop (FIG. 15C)): did not inhibit | expression level of Xbp1s (Xbp1s; adipose tissue in the mesentery, FIG. 15B): did not inhibit | expression level of Xbp1s (Xbp1s; islets of Langerhans, FIG. 14D): did not inhibit | expression level of Xbp1s (Xbp1s; liver, FIG. 15D): did not inhibit | expression level of TNF-α (TNF-α; epididymal adipose tissue, FIG. 16A): did not inhibit | expression level of TNF-α (TNF-α; subcutaneous fatty tissue, FIG. 16C): did not inhibit | expression level of MCP-1 (MCP-1; epididymal adipose tissue, FIG. 16B): did not inhibit | expression level of MCP-1 (MCP-1; subcutaneous fatty tissue, FIG. 16D): did not inhibit | blood glucose level (obese mice): decreased | insulin secretion (obese mice): promotion | lipid absorption from the small intestine (obese mice): inhibition | taste for high fat diets (obese mice): restriction
